Experimental data taken from paper PMC8388771, “Cationic Peptidomimetic Amphiphiles Having a N-Aryl- or N-Naphthyl-1,2,3-Triazole Core Structure Targeting Clostridioides (Clostridium) difficile: Synthesis, Antibacterial Evaluation, and an In Vivo C. difficile Infection Model” (Antibiotics, 2021).
Values after ≈ are worked out from the molar mass of the structure shown. Where two headings read alike, the source gives them in different places.

Legend:
C. difficile ATCC 700057 = assay: Primary MIC assay, C. difficile ATCC 700057; format: cell-based, Clostridioides difficile; conditions: Table 1; for MIC: Clostridioides difficile, ATCC700057, read-out: MIC C. difficile ATCC 700057
Summary of the method: (§1)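 Compounds were screened for antimicrobial activity by CLSI-based MIC determination. Anaerobes were tested under the anaerobic CLSI method, aerobes under the aerobic one.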

C. difficile 132 (RT027) = assay: Primary MIC assay, C. difficile 132 (RT027); format: cell-based, Clostridioides difficile; conditions: Table 1; for MIC: Clostridioides difficile, read-out: MIC C. difficile 132 (RT027)
Summary of the method: as §1

S. aureus ATCC 29213 = assay: Primary MIC assay, S. aureus ATCC 29213; format: cell-based; conditions: Staphylococcus aureus, ATCC29213; Table 1; read-out: MIC S. aureus ATCC 29213
Summary of the method: as §1

S. aureus NCTC 10442 = assay: Primary MIC assay, S. aureus NCTC 10442 (MRSA); format: cell-based; conditions: Staphylococcus aureus, MRSA
Summary of the method: as §1

E. faecalis ATCC 29212 = assay: Primary MIC assay, E. faecalis ATCC 29212; format: cell-based, Enterococcus faecalis; conditions: Enterococcus faecalis, ATCC29212; Table 1; read-out: MIC E. faecalis ATCC 29212
Summary of the method: as §1

S. pneumoniae ATCC 49619 = assay: Primary MIC assay, S. pneumoniae ATCC 49619; format: cell-based, Streptococcus pneumoniae; conditions: Streptococcus pneumoniae, ATCC49619; Table 1; read-out: MIC S. pneumoniae ATCC 49619
Summary of the method: as §1

E. coli ATCC 25922 [1] = assay: Primary MIC assay, E. coli ATCC 25922; format: cell-based; conditions: Escherichia coli, ATCC25922; Table 1; read-out: MIC E. coli ATCC 25922
[2] = Cytotoxicity (CC50) assay by CO-ADD; format: cell-based, human; conditions: human, HEK293 cells (ATCC CRL-1573); Table 1; cytotoxicity on HEK293 cells, tested at ≤32 µg/mL
human erythrocytes = assay: Hemolysis assay, HC50 determination; format: cell-based
Experimental: Hemolysis assay (human erythrocytes)–HC50 determination. These were performed as described previously.

S. aureus ATCC 43300 = assay: CO-ADD MIC assay, S. aureus ATCC 43300 (MRSA); format: cell-based; conditions: Staphylococcus aureus, MRSA, read-out: MIC S. aureus ATCC 43300
Summary of the method: (§2)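 CO-ADD whole-cell growth-inhibition MIC screening of the peptidomimetics against MRSA and Gram-negative strains.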

P. aeruginosa ATCC 27853 = assay: CO-ADD MIC assay, P. aeruginosa ATCC 27853; format: cell-based; conditions: Pseudomonas aeruginosa, ATCC27853, Table S1
Summary of the method: as §2

[3] = system: K. pneumoniae ATCC 700603; assay: CO-ADD MIC assay, K. pneumoniae ATCC 700603; format: cell-based; conditions: Klebsiella pneumoniae, ATCC700603, Table S1, multi-drug resistant
Summary of the method: as §2

A. baumannii ATCC 19606 = assay: CO-ADD MIC assay, A. baumannii ATCC 19606; format: cell-based; conditions: Acinetobacter baumannii, ATCC19606, Table S1
Summary of the method: as §2

E. coli ATCC 25922 [4] = assay: CO-ADD MIC assay, E. coli ATCC 25922; format: cell-based; conditions: Escherichia coli, ATCC25922, Table S1
Summary of the method: as §2

C. albicans ATCC 90028 = assay: CO-ADD MIC assay, C. albicans ATCC 90028; format: cell-based; conditions: Candida albicans, ATCC90028, Table S1
Summary of the method: (§3)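 Whole-cell growth inhibition (MIC) screening run by CO-ADD. Fluconazole served as antifungal positive control.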

[5] = system: Cryptococcus neoformans var. grubii ATCC 208821; assay: CO-ADD MIC assay, C. neoformans var. grubii ATCC 208821; format: cell-based; conditions: for MIC: Cryptococcus neoformans, ATCC208821, Table S1; for MIC C. neoformans var. grubii ATCC 208821: Table S1
Summary of the method: as §3

[6] = Comparative solubility assay (solubility ratio relative to compound 1); format: physicochemical
Source text: While the selectivity ratio could be more substantial, this is acceptable for the future development of these gastrointestinal focused compounds. […] These outcomes were confirmed with no issues during the mouse model trials with sufficient solubility in the dosage regimen. Variations on the triazole and O-naphthyl substituents could be made in future studies with the view of enhancing antibacterial activity against C. difficile.

C. difficile = assay: MIC against C. difficile, strain not given; format: cell-based; conditions: Clostridioides difficile, strains of Table 1
Experimental: Primary screening (Gram-positive bacteria). Primary MIC assays were performed as described by the Clinical and Laboratory Standards Institute for aerobic and anaerobic bacteria. MIC values for vancomycin were within acceptable QC ranges.

[7] = Table 1, read-out: MIC S. aureus NCTC 10442
[8] = Table 1, lysis of human erythrocytes
[9] = Table S1, footnote says lysis of sheep erythrocytes

Compound	MIC (C. difficile ATCC 700057)	MIC (C. difficile 132 (RT027))	MIC (S. aureus ATCC 29213)	MIC (S. aureus NCTC 10442; [7])	MIC (E. faecalis ATCC 29212)	MIC (S. pneumoniae ATCC 49619)	MIC (E. coli ATCC 25922 [1])	CC50 [2]	HC50 (human erythrocytes; [8])	HC50 (human erythrocytes; [9])	MIC (S. aureus ATCC 43300; Table S1, CO-ADD)	MIC (P. aeruginosa ATCC 27853)	MIC [3]	MIC (A. baumannii ATCC 19606)	MIC (E. coli ATCC 25922 [4])	MIC (C. albicans ATCC 90028)	MIC [5]	MIC C. neoformans var. grubii ATCC 208821 [5]	further results
CC(C)CCc1cnnn1-c1c(OCC(=O)N[C@H](CCCNC(=N)N)Cn2cc(C3CCCCC3)nn2)ccc2ccccc12 [Compound 24]	32 µg/mL (≈ 52 µM)	32 µg/mL (≈ 52 µM)	8 µg/mL (≈ 13 µM)	8 µg/mL (≈ 13 µM)	8 µg/mL (≈ 13 µM)	8 µg/mL (≈ 13 µM)	32 µg/mL (≈ 52 µM)	21.9 µg/mL (≈ 35.6 µM)	>32 µg/mL	> 32 µg/mL	8 µg/mL (≈ 13 µM)	32 µg/mL (≈ 52 µM)	> 32 µg/mL	32 µg/mL (≈ 52 µM)	32 µg/mL (≈ 52 µM)	32 µg/mL (≈ 52 µM)	> 32 µg/mL		
CC(C)CCc1cnnn1-c1c(OCC(=O)N[C@H](CCCCN)C(=O)N[C@H](CCCNC(=N)N)Cn2cc(CC3CCCCC3)nn2)ccc2ccccc12 [Compound 44]	32 µg/mL (≈ 42.3 µM)	32 µg/mL (≈ 42.3 µM)	8 µg/mL (≈ 10.6 µM)	4 µg/mL (≈ 5.28 µM)	16 µg/mL (≈ 21.1 µM)	4 µg/mL (≈ 5.28 µM)	64 µg/mL (≈ 84.5 µM)	> 32 µg/mL	>32 µg/mL	> 32 µg/mL	8 µg/mL (≈ 10.6 µM)	32 µg/mL (≈ 42.3 µM)	> 32 µg/mL	32 µg/mL (≈ 42.3 µM)	32 µg/mL (≈ 42.3 µM)	32 µg/mL (≈ 42.3 µM)	4 to 8 µg/mL (≈ 5.28 to 10.6 µM)	8 µg/mL (≈ 10.6 µM)	
CC(C)CCc1cnnn1-c1c(OCC(=O)N[C@H](CCCNC(=N)N)Cn2cc(Cc3ccccc3)nn2)ccc2ccccc12.Cl [Compound 26]	64 µg/mL	> 128 µg/mL	8 µg/mL	8 µg/mL	16 µg/mL	4 µg/mL	64 µg/mL	23.5 µg/mL	>32 µg/mL	> 32 µg/mL	16 µg/mL	> 32 µg/mL	> 32 µg/mL	> 32 µg/mL	> 32 µg/mL	32 µg/mL	> 32 µg/mL		
CC(C)CCc1cn(-c2c(OCC(=O)N[C@H](CCCCN)C(=O)N[C@H](CCCNC(=N)N)Cn3cc(Cc4ccccc4)nn3)ccc3ccccc23)nn1.Cl.Cl [Compound 42]	8 µg/mL	8 µg/mL	8 µg/mL	8 µg/mL	8 µg/mL	8 µg/mL	32 µg/mL	32 µg/mL	32 µg/mL	32 µg/mL	8 µg/mL	32 µg/mL	> 32 µg/mL	32 µg/mL	32 µg/mL	> 32 µg/mL	4 to 8 µg/mL	8 µg/mL	MIC C. difficile ATCC 700057 (C. difficile ATCC 700057): 8 µg/mL; MIC C. difficile 132 (RT027) (C. difficile 132 (RT027)): 8 µg/mL; MIC (S. aureus NCTC 10442; MRSA / NCTC 10442 / NCTC 104422, Table 2, read-out: MIC S. aureus NCTC 104422): 8 µg/mL; HC50 (human erythrocytes; Table 2, footnote says lysis of sheep erythrocytes): 32 µg/mL; MIC (S. aureus ATCC 43300; Table 2): 8 µg/mL; relative solubility ratio (relative to compound 1) [6]: 4; MIC (C. difficile): 8 µg/mL
CC(C)CCc1cnnn1-c1c(OCC(=O)N[C@H](CCCNC(=N)N)Cn2cc(CC3CCCCC3)nn2)ccc2ccccc12.Cl [Compound 25]	32 µg/mL	64 µg/mL	4 µg/mL	4 µg/mL	8 µg/mL	8 µg/mL	16 µg/mL	> 32 µg/mL	10.6 µg/mL	10.6 µg/mL	4 µg/mL	> 32 µg/mL	> 32 µg/mL	32 µg/mL	32 µg/mL	16 µg/mL	4 to 8 µg/mL	8 µg/mL	
